Data as given in ChEMBL document CHEMBL3832037, “DailyMed|setid=7FCE939E-C38E-497F-BA3F-E7B6BA44BFD9 | SIMVASTATIN - simvastatin tablet, film coated|Contract Pharmacy Services-PA”.
Values joined by “and” are separate entries in the source; they are usually repeats but may differ in a detail not shown here. Identical values can stand only once.

Tests used:
Homo sapiens [1] = assay: Effect of the co-administered drugs on the AUC and Cmax of simvastatin and simvastatin acid. The geometric mean AUC and Cmax ratio (Ratio: with/without co-administered drug) for simvastatin and simvastatin acid following multpile dose co-administration of simvastatin with different drugs.; type: ADME, organism-based; conditions: in vivo, po, dose 20 mg, dosed compound id 2, dosed compound name SIMVASTATIN, regimen Every 24h, tissue Plasma
Homo sapiens [2] = assay: Effect of co-administered drugs on the AUC and Cmax for Simvastatin, and its active metabolite Simvastatin acid. The geometric mean AUC and Cmax ratio (Ratio: with/without co-administered drug) for Simvastatin acid following single dose co-administration of Simvastatin with different drugs.; type: ADME, organism-based; conditions: in vivo, po, dosed compound id 2, dosed compound name SIMVASTATIN, regimen Single dose, tissue Plasma
[3] = dose 20 mg, interact cpd dose 2 g
[4] = dose 20 mg, interact cpd dose 237 mL, inter cpd dosed level low, inter cpd dos duration 3 days
[5] = dose 40 mg, interact cpd dose 600 mg, inter cpd dos duration 3 days
[6] = dose 60 mg, interact cpd dose 200 mL, inter cpd dosed level high, inter cpd dos duration 2 days
[7] = dose 80 mg, interact cpd dose 10 mg, inter cpd dos duration 10 days
[8] = dose 80 mg, interact cpd dose 120 mg, inter cpd dos duration 10 days
[9] = dose 80 mg, interact cpd dose 160 mg, inter cpd dos duration 14 days, study dosing duration 7 days
[10] = dose 80 mg, interact cpd dose 200 mg, inter cpd dos duration 4 days
[11] = dose 80 mg, interact cpd dose 240 mg, inter cpd dos duration 3 days

Row | Compound | Ratio Cmax (Homo sapiens [1]; interact cpd dose 200 mg, inter cpd dos duration 4 days) | Ratio AUC (Homo sapiens [1]; interact cpd dose 1250 mg, inter cpd dos duration 14 days, study dosing duration 28 days) | Ratio AUC (Homo sapiens [2]; [3]) | Ratio Cmax (Homo sapiens [2]; [3]) | Ratio AUC (Homo sapiens [2]; [4]) | Ratio AUC (Homo sapiens [2]; [5]) | Ratio Cmax (Homo sapiens [2]; [5]) | Ratio AUC (Homo sapiens [2]; [6]) | Ratio AUC (Homo sapiens [2]; [7]) | Ratio Cmax (Homo sapiens [2]; [7]) | Ratio AUC (Homo sapiens [2]; [8]) | Ratio Cmax (Homo sapiens [2]; [8]) | Ratio AUC (Homo sapiens [2]; [9]) | Ratio Cmax (Homo sapiens [2]; [9]) | Ratio AUC (Homo sapiens [2]; [10]) | Ratio Cmax (Homo sapiens [2]; [10]) | Ratio Cmax (Homo sapiens [2]; [11]) | Ratio AUC (Homo sapiens [2]; dose 80 mg, interact cpd dose 240 mg, inter cpd dos duration 7 days) | Ratio Cmax (Homo sapiens [2]; [6]) | Ratio AUC (Homo sapiens [2]; [11])
1 | CCC(C)(C)C(=O)O[C@H]1C[C@@H](C)C=C2C=C[C@H](C)[C@H](CC[C@@H]3C[C@@H](O)CC(=O)O3)[C@H]21 [SIMVASTATIN] | 6.2 | 6 | 1.4 | 1.08 | 1.9 | 1.35 | 0.91 | 16 | 1.77 | 1.47 | 3.1 | 2.88 | 0.89 | 0.83 | 8.9 | 5.3 and 13.1 | 2.1 | 2.5 |  | 
2 | CCC(C)(C)C(=O)O[C@H]1C[C@@H](C)C=C2C=C[C@H](C)[C@H](CC[C@@H](O)C[C@@H](O)CC(=O)O)[C@H]21 [TENIVASTATIN] |  |  | 1.6 | 1.84 | 1.3 | 2.85 | 2.18 |  | 1.58 | 1.56 | 2.69 | 2.69 | 0.64 | 0.89 | 12 | 15 and 13.1 | 2.4 |  | 7 | 2.3
